Source: publication PMC6502800, “Visualizing the cellular route of entry of a cystine-knot peptide with Xfect transfection reagent by electron microscopy” (Scientific Reports, 2019)

Tests used:
HeLa cells [1] = test: Uptake of cargo into cells pre-treated with Xfect
Description: Cells were fixed with 4% PFA and processed as described in methods. […] Values were normalized to the 6 h Xfect treated samples. Mean ± SD. n = 1000 cells. Representative images from three independent experiments are shown. Scale bar, 20 µm.
(a–d) HeLa cells were incubated with Xfect for indicated times then washed with PBS for three times and incubated with 30 nM SYTOX Red (a,b, Cy5 channel) or 200 nM YOYO-3 Iodide (c,d, Texas Red channel) for 20 min, and washed with PBS again. Cells were fixed with 4% PFA and processed as described in methods. […] Values were normalized to the 24 h Xfect treated samples. Mean ± SD. n = 1000 cells. Representative images from three independent experiments are shown. Scale bar, 20 µm.
cells.HeLa cells were incubated with Xfect for the indicated times, then washed with PBS
forthree times and incubated with 30 nM SYTOX Red (a, Cy5 channel) or 200 nM YOYO-3
Iodide (b, Texas Red channel) for 20 min, and washed with PBS again. Cells were fixed with
4% PFA and processed as described in methods. Representative images from three
independent experiments are shown. Scale bar, 20 µm. Images are normalized to saturation
atthe 24 h time point in order to show the cellular distribution of early time point samples.

HeLa cells [2] = test: Detergent-based cell permeabilization assay
Description: Figure 4 Internalized rEETI-II/Xfect is found in compartments that are resistant to detergent permeabilization. […] Cells were then incubated with PBS, 0.1% Triton X-100, 0.04% Saponin, 0.01% Saponin, or 25 μM Digitonin in PBS for 5 min at room temperature, washed and imaged. […] Mean ± SD. n = 1000 cells. Representative images from at least three independent experiments are shown. Scale bar, 20 μm.
For cell permeabilization experiments, HeLa cells were incubated with 5 μM rEETI-II-A488 with or without Xfect for 60 min, or transferrin (labeled with Alexa 555, 0.2 mg/ml) for 10 min, at 37 °C/5% CO2, washed three times with cold PBS. Cells were then fixed with 4% PFA for 20 min at room temperature, washed three times with PBS, and incubated with either PBS, or detergent containing PBS for 5 min at room temperature. Cells were washed again. […] Fluorescence images were captured on a high throughput ImageXpress Micro XL imaging system (Molecular Devices) and images were analyzed by MetaXpress 4.0. Fluorescence intensity values above a threshold defined using the DMSO-treated samples were measured and used to quantify integrated fluorescence intensity per cell or percentage of dye-positive cells. […] Cells were incubated with Hoechst 333421 (5 µg/ml in PBS) for 10 min and washed three times with PBS then imaged, analyzed as described above. […]

Compound | uptake of cell impermeable dye into cells pre-treated with Xfect (HeLa cells [1]; HeLa cells pre-treated with Xfect 3 h, washed, then dye 20 min (SYTOX Red 30 nM; YOYO-3 Iodide 200 nM), fluorescence imaging) | uptake of dye into cells in the absence of Xfect preincubation (HeLa cells [1]; HeLa cells, no Xfect, dye 20 min (SYTOX Red 30 nM; YOYO-3 Iodide 200 nM), negative control) | internalized transferrin staining after detergent permeabilization (HeLa cells [2])
C[n+]1c(C=CC=C2C=CN(CCC[N+](C)(C)CCC[N+](C)(C)CCCN3C=CC(=CC=Cc4oc5ccccc5[n+]4C)c4ccccc43)c3ccccc32)oc2ccccc21 [YOYO-3 Iodide] | observed to enter into cells | little to no uptake | 
transferrin-Alexa555: transferrin labeled with Alexa 555, marker of early and recycling endosomes |  |  | resistant to detergent extraction
